# Reference: ChEMBL document CHEMBL2163191, “Antiallergic activity profile in vitro RBL-2H3 and in vivo passive cutaneous anaphylaxis mouse model of new sila-substituted 1,3,4-oxadiazoles” (J Med Chem, 2012)
# Calls of active or inactive are those of the source. No cut-off for these calls is given here.
# Columns and labels:
# RBL-2H3 [1] = assay: Cytotoxicity against IgE/Ag-stimulated rat RBL2H3 cells at 50 to 200 uM incubated for 23 hrs by Ez-cytox assay; type: cell-based; details: rbl-2h3, 23 h
# RBL-2H3 [2] = assay: Inhibition of PI3K-mediated Akt phosphorylation in IgE/Ag-induced rat RBL2H3 cells incubated in presence of DNP-HSA for 1 hr post compound dosing by Western blotting; type: cell-based
# Mus musculus [3] = assay: Antiallergic activity in IgE/Ag-induced passive cutaneous anaphylactic ICR mouse model injected with DNP-HSA-Evans blue dye post DNP-IgE challenge at 50 to 100 mg/kg, po 1 hr before antigenic challenge measured after 2 hrs post IgE/Ag challenge; type: functional, organism-based
# RBL-2H3 [4] = assay: Antidegranulation effect in DNP-HSA induced rat RBL2H3 cells assessed as IgE/Ag complex-induced degranulation preincubated for 30 mins before DNP-HSA challenge for 15 mins by beta-hexosaminidase release based microplate reader method; type: functional, cell-based
# RBL-2H3 [5] = assay: Inhibition of TNFalpha mRNA expression in IgE/Ag-stimulated rat RBL2H3 cells incubated in presence of DNP-HSA for 1 hr post compound dosing by RT-PCR; type: functional, cell-based
# Mus musculus [6] = assay: Antiallergic activity in IgE/Ag-induced passive cutaneous anaphylactic ICR mouse model injected with DNP-HSA-Evans blue dye post DNP-IgE challenge at 50 mg/kg, po 1 hr before antigenic challenge measured after 2 hrs post IgE/Ag challenge; type: functional, organism-based; design: dose 50 mg/kg
Structure (SMILES),Activity (RBL-2H3 [1]),inhibition (RBL-2H3 [2]),Activity (Mus musculus [3]),Activity (RBL-2H3 [4]),inhibition (RBL-2H3 [5]),Activity (Mus musculus [6])
C[Si](C)(C)CS(=O)(=O)Cc1nnc(-c2ccc(Cl)cc2)o1,Non-toxic,Dose-dependent effect,Active,Dose-dependent effect,Dose-dependent effect,–
CC(C)(C)CS(=O)(=O)Cc1nnc(-c2ccc(Cl)cc2)o1,–,–,–,inactive,–,–
CN(C)CCOC(c1ccccc1)c1ccccc1,–,–,–,–,–,Active
